As a reminder, the IC50 is the concentration at which inhibition is half-maximal.

Experimental findings from patent US9650379B2 (CHONG KUN DANG PHARMACEUTICAL CORP., priority 2013, dated 2017) are described below.

Assay [1] concerns the target T1, HDAC6 human recombinant (Homo sapiens, UniProt Q9UBN7).
T1 construct: purchased Calbiochem 382180
T1 sequence (Q9UBN7 1-1215): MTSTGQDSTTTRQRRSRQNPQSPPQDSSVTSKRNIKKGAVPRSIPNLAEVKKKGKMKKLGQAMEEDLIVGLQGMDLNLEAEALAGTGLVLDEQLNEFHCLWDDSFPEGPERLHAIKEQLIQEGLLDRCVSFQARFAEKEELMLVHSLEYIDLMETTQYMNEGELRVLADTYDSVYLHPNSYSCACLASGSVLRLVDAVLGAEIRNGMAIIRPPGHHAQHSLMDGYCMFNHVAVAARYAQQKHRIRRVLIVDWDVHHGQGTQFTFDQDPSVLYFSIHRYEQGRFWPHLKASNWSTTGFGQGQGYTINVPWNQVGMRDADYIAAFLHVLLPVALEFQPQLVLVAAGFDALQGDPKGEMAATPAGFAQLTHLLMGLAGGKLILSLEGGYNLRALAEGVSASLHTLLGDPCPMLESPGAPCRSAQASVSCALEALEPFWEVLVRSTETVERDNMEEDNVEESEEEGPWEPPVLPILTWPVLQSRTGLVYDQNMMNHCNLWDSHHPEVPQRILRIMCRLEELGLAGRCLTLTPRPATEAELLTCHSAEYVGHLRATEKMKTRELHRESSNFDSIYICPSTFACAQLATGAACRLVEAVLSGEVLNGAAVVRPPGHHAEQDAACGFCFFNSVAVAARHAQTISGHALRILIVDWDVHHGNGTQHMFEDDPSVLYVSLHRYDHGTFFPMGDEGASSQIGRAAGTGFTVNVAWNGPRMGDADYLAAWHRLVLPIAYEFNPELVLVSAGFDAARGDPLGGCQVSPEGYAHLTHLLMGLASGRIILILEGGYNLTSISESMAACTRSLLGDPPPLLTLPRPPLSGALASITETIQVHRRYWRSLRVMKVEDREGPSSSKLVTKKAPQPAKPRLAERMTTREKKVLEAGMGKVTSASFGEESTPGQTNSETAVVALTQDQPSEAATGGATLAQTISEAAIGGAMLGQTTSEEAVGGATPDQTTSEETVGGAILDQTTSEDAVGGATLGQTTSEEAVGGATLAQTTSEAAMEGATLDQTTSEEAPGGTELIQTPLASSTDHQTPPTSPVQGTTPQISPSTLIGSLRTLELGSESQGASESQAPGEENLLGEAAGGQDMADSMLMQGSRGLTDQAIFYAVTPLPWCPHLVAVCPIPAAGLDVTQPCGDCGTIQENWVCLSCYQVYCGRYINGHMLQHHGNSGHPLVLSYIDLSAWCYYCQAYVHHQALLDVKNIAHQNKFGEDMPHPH
In words: Inhibition of HDAC6 activity (fluorimetric assay). It counts as biochemical. The settings on record: test concentrations 0.1, 1, 10, 100 and 1000 nM; 37° C., 60 minutes. In short, it runs like this: (§1)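 HDAC1 tested with the kit assay mixture at 100, 1000 and 10000 nM compound; recombinant human HDAC6 at 0.1, 1, 10, 100 and 1000 nM. Reaction ran 60 min at 37° C, then developer was added for 30 min at 37° C and fluorescence quantified.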

Assay [2] concerns the target T2, HDAC1 (Homo sapiens, UniProt Q13547).
T2 construct: purchased Enzolifesciences BML-AK511
Put plainly: Inhibition of HDAC1 activity (HDAC1 fluorimetric drug discovery assay kit). It is filed as biochemical. The settings on record: test concentrations 100, 1000 and 10000 nM; 37° C., 60 minutes. In short, it runs like this:
as §1

T2 sequence (Q13547 whole entry): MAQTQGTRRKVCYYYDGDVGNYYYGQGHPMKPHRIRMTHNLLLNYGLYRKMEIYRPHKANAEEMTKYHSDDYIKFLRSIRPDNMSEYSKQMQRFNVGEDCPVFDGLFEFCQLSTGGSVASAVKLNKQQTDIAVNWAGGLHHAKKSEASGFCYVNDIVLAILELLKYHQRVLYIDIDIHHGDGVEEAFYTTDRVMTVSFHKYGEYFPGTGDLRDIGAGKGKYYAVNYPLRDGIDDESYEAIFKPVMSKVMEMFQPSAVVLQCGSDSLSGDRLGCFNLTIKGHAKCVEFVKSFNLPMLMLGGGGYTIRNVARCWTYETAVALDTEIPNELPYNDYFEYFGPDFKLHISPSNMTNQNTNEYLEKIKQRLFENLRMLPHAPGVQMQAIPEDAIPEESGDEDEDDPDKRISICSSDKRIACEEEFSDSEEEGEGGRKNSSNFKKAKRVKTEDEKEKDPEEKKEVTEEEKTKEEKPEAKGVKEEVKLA

`O=C(NO)c1ccc(Cn2ccc3cc(C4CCN(Cc5ccc(C(F)(F)F)cc5)CC4)cnc32)cc1` [Compound 872, N-hydroxy-4-((5-(1-(4-(trifluoromethyl)benzyl)piperidin-4-yl)-1H-pyrrolo[2,3-b]pyridin-1-yl)methyl)benzamide]: the IC50 stood at 165 nM in assay [1] and 6340 nM in assay [2].

As for `CN1CCN(Cc2cccc(C(=O)N3CCC(c4cnc5c(ccn5Cc5ccc(C(=O)NO)cc5)c4)CC3)c2)CC1` [Compound 896, N-hydroxy-4-((5-(1-(3-((4-methylpiperazin-1-yl)methyl)benzoyl)piperidin-4-yl)-1H-pyrrolo[2,3-b]pyridin-1-yl)methyl)benzamide], the IC50 in assay [1] worked out at 8.6 nM; in assay [2], 800 nM.

With `O=C(NO)c1ccc(Cn2ccc3cc(C4=CCNCC4)cnc32)cc1` [Compound 693, N-hydroxy-4-((5-(1,2,3,6-tetrahydropyridin-4-yl)-1H-pyrrolo[2,3-b]pyridin-1-yl)methyl)benzamide], the IC50 in assay [1] amounted to 3 nM; in assay [2], 520 nM.

In the case of `O=C(NO)c1ccc(Cn2ccc3cc(C4=CCC(F)(F)CC4)cnc32)cc1` [Compound 650, 4-((5-(4,4-difluorocyclohex-1-en-1-yl)-1H-pyrrolo[2,3-b]pyridin-1-yl)methyl)-N-hydroxybenzamide], the IC50 in assay [1] was 14 nM; in assay [2] it was 2300 nM.

In the case of `O=C(NO)c1ccc(Cn2ccc3cc(C4CCN(Cc5ccc(-n6ccnc6)cc5)CC4)cnc32)cc1` [Compound 873, 4-((5-(1-(4-(1H-imidazol-1-yl)benzyl)piperidin-4-yl)-1H-pyrrolo[2,3-b]pyridin-1-yl)methyl)-N-hydroxybenzamide], the IC50 stood at 16.5 nM in assay [1] and 760 nM in assay [2].

In the case of `O=C(O)CCN1CCC(c2ccnc3c2ccn3Cc2ccc(C(=O)NO)cc2)CC1` [Compound 927, 3-(4-(1-(4-(hydroxycarbamoyl)benzyl)-1H-pyrrolo[2,3-b]pyridin-4-yl)piperidin-1-yl)propionic acid], the IC50 came out at 4.5 nM in assay [1] and 830 nM in assay [2].

As for `CN1CC=C(c2ccnc3c2ccn3Cc2ccc(C(=O)NO)cc2)CC1` [Compound 723, N-hydroxy-4-((4-(1-methyl-1,2,3,6-tetrahydropyridin-4-yl)-1H-pyrrolo[2,3-b]pyridin-1-yl)methyl)benzamide], the IC50 was 5 nM in assay [1] and 310 nM in assay [2].

Turning to `CC(C)N1CCN(c2ccnc3c2ccn3Cc2ccc(C(=O)NO)cc2)CC1` [Compound 225, N-hydroxy-4-((4-(4-isopropylpiperazin-1-yl)-1H-pyrrolo[2,3-b]pyridin-1-yl)methyl)benzamide], the IC50 in assay [1] is 3 nM; in assay [2], 410 nM.

For the compound `CC(C)(C)CN1CCC(c2ccnc3c2ccn3Cc2ccc(C(=O)NO)cc2)CC1` [Compound 868, N-hydroxy-4-((4-(1-neopentylpiperidin-4-yl)-1H-pyrrolo[2,3-b]pyridin-1-yl)methyl)benzamide], the IC50 in assay [1] is 15.6 nM; in assay [2] it was 930 nM.

Regarding `O=C(NO)c1ccc(Cn2ccc3cc(N4CCC5(CCN(Cc6cccnc6)C5)CC4)cnc32)cc1` [Compound 1101, N-hydroxy-4-((5-(2-(pyridin-3-ylmethyl)-2,8-diazaspiro[4.5]decan-8-yl)-1H-pyrrolo[2,3-b]pyridin-1-yl)methyl)benzamide], the IC50 in assay [1] turned out to be 1 nM; in assay [2] it was 500 nM.

Consider `COc1ccc(CN2CCN(c3ccnc4c3ccn4Cc3ccc(C(=O)NO)cc3)CC2)cc1` [Compound 705, N-hydroxy-4-((4-(4-(4-methoxybenzyl)piperazin-1-yl)-1H-pyrrolo[2,3-b]pyridin-1-yl)methyl)-benzamide], for which the IC50 in assay [1] amounted to 11 nM; in assay [2], 1120 nM.

For `CC(C)(C)OC(=O)N1CCC(F)(CN2CCN(c3ccnc4c3ccn4Cc3ccc(C(=O)NO)cc3)CC2)CC1` [Compound 760, tert-butyl 4-fluoro-4-((4-(1-(4-(hydroxycarbamoyl)benzyl)-1H-pyrrolo[2,3-b]pyridin-4-yl)piperazin-1-yl)methyl)piperidine-1-carboxylate], the IC50 worked out at 37 nM in assay [1] and 3210 nM in assay [2].

For the compound `O=C(NO)c1ccc(Cn2ccc3cc(C4CCN(Cc5cccc(CN6CCOCC6)c5)CC4)cnc32)cc1` [Compound 878, N-hydroxy-4-((5-(1-(3-(morpholinomethyl)benzyl)piperidin-4-yl)-1H-pyrrolo[2,3-b]pyridin-1-yl)methyl)benzamide], the IC50 came out at 6.4 nM in assay [1] and 1120 nM in assay [2].

With `O=C(NO)c1ccc(Cn2ccc3cc(-c4ccc5cccnc5c4)cnc32)cc1` [Compound 688, N-hydroxy-4-((5-(quinolin-7-yl)-1H-pyrrolo[2,3-b]pyridin-1-yl)methyl)benzamide], the IC50 in assay [1] was determined as 22 nM; in assay [2], 4610 nM.

As for `O=C(O)CN1CCC(c2ccnc3c2ccn3Cc2ccc(C(=O)NO)cc2)CC1` [Compound 917, 2-(4-(1-(4-(hydroxycarbamoyl)benzyl)-1H-pyrrolo[2,3-b]pyridin-4-yl)piperidin-1-yl)acetic acid], the IC50 in assay [1] turned out to be 5.8 nM; in assay [2] it was 780 nM.

In the case of `C[C@@H]1CN(c2cnc3c(ccn3Cc3ccc(C(=O)NO)cc3)c2)C[C@H](C)N1CC(C)(C)O` [Compound 865, N-hydroxy-4-((5-((3S,5R)-4-(2-hydroxy-2-methylpropyl)-3,5-dimethylpiperazin-1-yl)-1H-pyrrolo[2,3-b]pyridin-1-yl)methyl)benzamide], the IC50 in assay [1] turned out to be 12 nM; in assay [2], 680 nM.

With `CC(C)(C)OC(=O)N1CC=C(c2cnc3ccn(Cc4ccc(C(=O)NO)cc4)c3c2)CC1` [Compound 786, tert-butyl 4-(1-(4-(hydroxycarbamoyl)benzyl)-1H-pyrrolo[3,2-b]pyridin-6-yl)-5,6-dihydropyridine-1(2H)-carboxylate], the IC50 in assay [1] was determined as 5.7 nM; in assay [2], 620 nM.

Regarding `CC1CN(c2cnc3c(ccn3Cc3ccc(C(=O)NO)cc3)c2)CC(C)O1` (centres unmarked) [Compound 807, 4-((5-(2,6-dimethylmorpholino)-1H-pyrrolo[2,3-b]pyridin-1-yl)methyl)-N-hydroxybenzamide], the values for the IC50 in assay [1] and in assay [2] were 10.4 nM and 390 nM, respectively.

`O=C(NO)c1ccc(Cn2ccc3cc(C4CCN(Cc5ccc(CN6CCOCC6)cc5)CC4)cnc32)cc1` [Compound 882, N-hydroxy-4-((5-(1-(4-(morpholinomethyl)benzyl)piperidin-4-yl)-1H-pyrrolo[2,3-b]pyridin-1-yl)methyl)benzamide]: the figures for the IC50 in assay [1] and in assay [2] were 7.5 nM and 1140 nM, respectively.

As for `CC(C)(F)C(=O)N1CCN(c2ccnc3c2ccn3Cc2ccc(C(=O)NO)cc2)CC1` [Compound 856, 4-((4-(4-(2-fluoro-2-methylpropanoyl)piperazin-1-yl)-1H-pyrrolo[2,3-b]pyridin-1-yl)methyl)-N-hydroxybenzamide], the IC50 in assay [1] was 2.3 nM; in assay [2] it was 80 nM.

Regarding `O=C(NO)c1ccc(Cn2ccc3cc(C4CCN(C(=O)c5cccc(F)c5)CC4)cnc32)cc1` [Compound 831, 4-((5-(1-(3-fluorobenzoyl)piperidin-4-yl)-1H-pyrrolo[2,3-b]pyridin-1-yl)methyl)-N-hydroxybenzamide], the values for the IC50 in assay [1] and in assay [2] were 7 nM and 1220 nM, respectively.

On to `CC(O)(CO)CN1CCC(c2ccnc3c2ccn3Cc2ccc(C(=O)NO)cc2)CC1` (centres unmarked) [Compound 945, 4-((4-(1-(2,3-dihydroxy-2-methylpropyl)piperidin-4-yl)-1H-pyrrolo[2,3-b]pyridin-1-yl)methyl)-N-hydroxybenzamide], for which the IC50 is 3.7 nM in assay [1] and 200 nM in assay [2].
